The term Kd denotes the concentration at which binding is half-saturated. Usually IC50 stands for the concentration at which inhibition is half-maximal.

Consider 36 molecules from ChEMBL document CHEMBL5096216, “Rational Design, Synthesis, and Biological Evaluation of Novel S1PR2 Antagonists for Reversing 5-FU-Resistance in Colorectal Cancer” (J Med Chem, 2022).

In data set [1] the target is Sphingosine 1-phosphate receptor 2 (Homo sapiens, UniProt O95136). The experiment in a line: Binding affinity to S1PR2 (unknown origin) assessed as dissociation constant by surface plasmon resonance analysis.
Chain of Sphingosine 1-phosphate receptor 2 (O95136 whole entry): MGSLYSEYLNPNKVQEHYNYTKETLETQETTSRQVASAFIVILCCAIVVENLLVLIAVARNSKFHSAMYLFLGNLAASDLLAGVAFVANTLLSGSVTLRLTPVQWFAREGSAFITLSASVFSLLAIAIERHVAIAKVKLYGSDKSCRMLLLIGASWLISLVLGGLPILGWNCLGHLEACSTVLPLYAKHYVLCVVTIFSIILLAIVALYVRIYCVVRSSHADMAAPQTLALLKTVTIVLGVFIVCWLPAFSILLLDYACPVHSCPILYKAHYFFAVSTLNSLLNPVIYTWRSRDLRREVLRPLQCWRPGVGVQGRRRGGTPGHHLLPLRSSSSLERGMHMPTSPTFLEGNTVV
Data set [2] has as its system HT-29. In words: Reversal of 5-FU resistance in human HT-29 cells assessed as reduction in cell viability incubated for 48 hrs in presence of 5-FU by MTT assay. The data set is classed as functional, cell-based. The settings on record: HT-29, 48 h. In general terms: Tetrazolium assays rely on reduction of a dye to a coloured formazan, in cell work by metabolically active cells.

For data set [3], the system named is NCM460. The experiment in a line: Cytotoxicity against human NCM460 cells assessed as reduction in cell viability incubated for 48 hrs in presence of 5-FU by MTT assay. It is filed as functional, cell-based. The conditions noted are these: NCM460, 48 h.
The subject of data set [4] is SW620/5-FU. In words: Reversal of 5-FU resistance in human SW620/5-FU cells assessed as reduction in cell viability incubated for 48 hrs in presence of 5-FU by MTT assay. It is filed as functional, cell-based.
Data set [5] has as its system HT-29. In words: Antiproliferative activity against human HT-29 cells assessed as reduction in cell viability incubated for 48 hrs by MTT assay. It is filed as functional, cell-based. The settings on record: HT-29, 48 h.
Data set [6] deals with Sphingosine 1-phosphate receptor 3 (Homo sapiens, UniProt Q99500). In words: Binding affinity to S1PR3 (unknown origin) assessed as dissociation constant by surface plasmon resonance analysis. For orientation: SPR reads the build-up and loss of mass on a sensor chip optically.
Chain of Sphingosine 1-phosphate receptor 3 (Q99500 whole entry): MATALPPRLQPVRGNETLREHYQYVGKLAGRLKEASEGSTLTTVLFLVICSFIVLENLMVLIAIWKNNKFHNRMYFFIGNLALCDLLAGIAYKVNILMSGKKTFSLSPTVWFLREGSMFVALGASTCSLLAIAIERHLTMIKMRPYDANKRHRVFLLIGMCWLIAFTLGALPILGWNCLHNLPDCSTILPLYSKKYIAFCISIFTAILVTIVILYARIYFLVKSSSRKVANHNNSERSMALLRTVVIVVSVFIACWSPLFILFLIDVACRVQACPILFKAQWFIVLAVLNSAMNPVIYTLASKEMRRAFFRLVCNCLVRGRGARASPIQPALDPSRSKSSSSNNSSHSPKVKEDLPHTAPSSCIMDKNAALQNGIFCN
The test system of data set [7] is HCT-116. The experiment in a line: Reversal of 5-FU resistance in human HCT-116 cells overexpressing DPD assessed as reduction in cell viability incubated for 48 hrs in presence of 5-FU by MTT assay. It is filed as functional, cell-based. The settings on record: HCT-116, 48 h.
For data set [8], the target named is T1, Sphingosine 1-phosphate receptor 4 (Homo sapiens, UniProt O95977).
T1 sequence (O95977 whole entry): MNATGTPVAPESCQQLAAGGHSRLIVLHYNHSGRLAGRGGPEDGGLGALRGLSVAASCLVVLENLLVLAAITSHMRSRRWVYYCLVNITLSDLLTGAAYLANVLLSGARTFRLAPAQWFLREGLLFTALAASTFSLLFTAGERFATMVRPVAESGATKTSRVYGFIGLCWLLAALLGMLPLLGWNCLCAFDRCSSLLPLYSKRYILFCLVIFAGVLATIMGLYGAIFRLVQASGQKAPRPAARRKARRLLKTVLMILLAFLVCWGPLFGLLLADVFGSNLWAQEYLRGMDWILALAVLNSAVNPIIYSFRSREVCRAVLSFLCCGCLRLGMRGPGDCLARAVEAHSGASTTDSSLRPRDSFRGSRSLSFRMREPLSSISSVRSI
In words: Binding affinity to S1PR4 (unknown origin) assessed as dissociation constant by surface plasmon resonance analysis.

The subject of data set [9] is HCT-116. In words: Antiproliferative activity against human HCT-116 cells overexpressing DPD assessed as reduction in cell viability incubated for 48 hrs by MTT assay. The data set is classed as functional, cell-based. The conditions noted are these: HCT-116, 48 h.
The test system of data set [10] is SW620/5-FU. In words: Antiproliferative activity against human SW620/5-FU cells assessed as reduction in cell viability incubated for 48 hrs by MTT assay. The data set is classed as functional, cell-based.
For data set [11], the target named is Sphingosine 1-phosphate receptor 1 (Homo sapiens, UniProt P21453). In words: Binding affinity to S1PR1 (unknown origin) assessed as dissociation constant by surface plasmon resonance analysis.
Chain of Sphingosine 1-phosphate receptor 1 (P21453 whole entry): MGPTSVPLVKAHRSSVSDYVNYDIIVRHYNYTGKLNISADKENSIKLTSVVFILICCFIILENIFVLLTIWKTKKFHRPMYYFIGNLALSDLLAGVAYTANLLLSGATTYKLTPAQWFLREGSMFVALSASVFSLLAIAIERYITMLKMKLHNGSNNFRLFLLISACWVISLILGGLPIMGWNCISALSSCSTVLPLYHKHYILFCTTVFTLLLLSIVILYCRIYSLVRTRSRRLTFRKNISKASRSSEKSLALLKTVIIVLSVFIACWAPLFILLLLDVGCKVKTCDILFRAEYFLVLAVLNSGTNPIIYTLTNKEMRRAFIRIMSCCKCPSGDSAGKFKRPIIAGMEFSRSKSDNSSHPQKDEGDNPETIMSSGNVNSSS
A short description of data set [12]: Cytotoxicity against human NCM460 cells assessed as reduction in cell viability incubated for 48 hrs by MTT assay. The data set is classed as toxicity, cell-based.
The target of data set [13] is Sphingosine 1-phosphate receptor 5 (Homo sapiens, UniProt Q9H228). In words: Binding affinity to S1PR5 (unknown origin) assessed as dissociation constant by surface plasmon resonance analysis.
Chain of Sphingosine 1-phosphate receptor 5 (Q9H228 whole entry): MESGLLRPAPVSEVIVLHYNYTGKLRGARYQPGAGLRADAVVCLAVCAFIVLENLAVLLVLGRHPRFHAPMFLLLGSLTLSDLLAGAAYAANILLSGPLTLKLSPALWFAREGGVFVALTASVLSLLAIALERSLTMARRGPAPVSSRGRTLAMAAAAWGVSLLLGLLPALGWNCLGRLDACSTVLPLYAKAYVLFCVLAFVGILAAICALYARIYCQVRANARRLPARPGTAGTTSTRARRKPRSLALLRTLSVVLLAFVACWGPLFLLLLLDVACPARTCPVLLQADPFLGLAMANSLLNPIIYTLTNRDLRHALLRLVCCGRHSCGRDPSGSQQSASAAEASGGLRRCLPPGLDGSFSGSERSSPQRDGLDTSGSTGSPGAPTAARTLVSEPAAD

As to `O=C(Nc1cc(Cl)nc(Cl)c1)Nc1cc(Cl)nc(Cl)c1`, in data set [1], the Kd came out at 13.2 nM.

On to `CNC(=O)c1ccc(Oc2cc(NC(=O)N3CCN(C(=O)c4ccc5ccccc5c4)CC3)cc(Oc3ccc(F)cc3)c2)cc1`, for which the Kd in data set [1] was 29.2 nM.

`CCC(CC)CC1(O)CCN(C(=O)Nc2cc(Oc3ccc(F)cc3)cc(Oc3ccc(C(N)=O)cc3)c2)CC1`: the Kd in data set [1] is 198 nM.

Regarding `CCC(CC)CN1CCN(C(=O)Nc2cc(Oc3ccc(F)cc3)cc(Oc3ccc(C(=O)N4CCOCC4)cc3)c2)CC1`, in [1], the Kd was > 1000 nM.

In the case of `CNC(=O)c1ccc(Oc2cc(NC(=O)N3CCN(c4ccc(C(F)(F)F)cc4)CC3)cc(Oc3ccc(F)cc3)c2)cc1`, the Kd in data set [1] is > 1000 nM.

Take `CNC(=O)c1ccc(Oc2cc(NC(=O)N3CCN(C(=O)OC(C)(C)C)CC3)cc(Oc3ccc(F)cc3)c2)cc1`: the Kd in data set [1] was found to be 1.15 nM.

`CNC(=O)c1ccc(Oc2cc(NC(=O)N3CCN(CC4CCCCC4)CC3)cc(Oc3ccc(F)cc3)c2)cc1`: the IC50 in [2] is 3910 nM; in [3], > 100000 nM; in data set [4], 3650 nM; in data set [5], > 100000 nM; in data set [7], 3160 nM; in [9] it was > 100000 nM. Further, in [10], the IC50 is > 100000 nM. For the same molecule, the Kd in data set [1] is 0.49 nM; in data set [6], > 100 nM; in data set [8], > 100 nM; in data set [11] it was > 100 nM; in data set [13], > 100 nM. The IC50 at 48 hrs in data set [12] is > 100000 nM.

Turning to `CNC(=O)c1ccc(Oc2cc(NC(=O)N3CCN(Cc4ccc(F)cc4)CC3)cc(Oc3ccc(F)cc3)c2)cc1`, in data set [1], the Kd is > 1000 nM.

`O=C(Nc1cc(Oc2ccncc2)cc(Oc2ccc(F)cc2)c1)N1CCC(O)(c2ccc(Cl)cc2)CC1`: the dissociation constant Kd in data set [1] worked out at 66.9 nM.

As to `CCC(CC)CN1CCN(C(=O)Nc2cc(Oc3ccc(F)cc3)cc(Oc3ccc(C(=O)O)cc3)c2)CC1`, the IC50 was 5130 nM in data set [2]; > 100000 nM in [3]; 2150 nM in [4]; > 100000 nM in [5]; 2650 nM in data set [7]; > 100000 nM in data set [9]. Further, in [10], the IC50 is > 100000 nM. Moreover, the Kd is 0.88 nM in [1]; > 100 nM in data set [6]; > 100 nM in data set [8]; > 100 nM in data set [11]; > 100 nM in [13]. Further, the IC50 at 48 hrs in [12] was > 100000 nM.

`CC(C)(C)OC(=O)NC1CCN(C(=O)Nc2cc(Oc3ccncc3)cc(Oc3ccc(F)cc3)c2)CC1`: in data set [1], the Kd is > 1000 nM.

On to `CCC(CC)CC1(O)CCN(C(=O)Nc2cc(Oc3ccc(F)cc3)cc(Oc3ccc(S(N)(=O)=O)cc3)c2)CC1`, for which, in data set [1], the Kd was > 1000 nM.

In the case of `CCC(CC)CN1CCN(C(=O)Nc2cc(Oc3ccc(F)cc3)cc(Oc3ccc(C(N)=O)cc3)c2)CC1`, the Kd in data set [1] was found to be 88.5 nM.

As to `CCC(CC)CC1(O)CCN(C(=O)Nc2cc(Oc3ccc(F)cc3)cc(Oc3ccc(C(=O)NC)cc3)c2)CC1`, the Kd in [1] came out at 4.15 nM.

Consider `CNC(=O)c1ccc(Oc2cc(NC(=O)N3CCN(C(=O)Cc4cccc(OC)c4)CC3)cc(Oc3ccc(F)cc3)c2)cc1`, for which, in [1], the Kd is > 1000 nM.

With `CCC(CC)CNC1CCN(C(=O)Nc2cc(Oc3ccncc3)cc(Oc3ccc(F)cc3)c2)CC1`, the IC50 in data set [2] is > 100000 nM; in [3], > 100000 nM; in data set [4], 3210 nM; in data set [5], > 100000 nM; in data set [7], 2930 nM; in data set [9], > 100000 nM. In [10], the IC50 was > 100000 nM. Further, the Kd in data set [1] was 0.63 nM; in data set [6] it was > 100 nM; in data set [8] it was > 100 nM; in data set [11], > 100 nM; in data set [13], > 100 nM. For the same molecule, the IC50 at 48 hrs in data set [12] was > 100000 nM.

In the case of `CCC(CC)CN1CCN(C(=O)Nc2cc(Oc3ccncc3)cc(Oc3ccc(F)cc3)c2)CC1`, the 50% inhibitory concentration (IC50) is > 100000 nM in data set [2]; > 100000 nM in data set [3]; 5840 nM in [4]; > 100000 nM in data set [5]; 2860 nM in data set [7]; > 100000 nM in [9]. In addition, in data set [10], the IC50 was determined as 25200 nM. Moreover, the Kd in data set [1] is 0.89 nM; in data set [6], > 100 nM; in data set [8], > 100 nM; in data set [11], > 100 nM; in [13], > 100 nM. Further, the IC50 at 48 hrs in data set [12] is > 100000 nM.

With `CNC(=O)c1ccc(Oc2cc(NC(=O)N3CCN(S(=O)(=O)c4ccc(C)cc4)CC3)cc(Oc3ccc(F)cc3)c2)cc1`, the Kd in [1] is > 1000 nM.

As to `CCC(CC)CN1CCN(C(=O)Nc2cc(Oc3ccc(F)cc3)cc(Oc3ccc(C(=O)N4CCCCC4)cc3)c2)CC1`, the dissociation constant (Kd) in data set [1] was > 1000 nM.

As to `CNC(=O)c1ccc(Oc2cc(NC(=O)Nc3cc(Cl)nc(Cl)c3)cc(Oc3ccc(F)cc3)c2)cc1`, the dissociation constant Kd in data set [1] was determined as 9.44 nM.

Consider `C#CCNC(=O)c1ccc(Oc2cc(NC(=O)N3CCN(CC(CC)CC)CC3)cc(Oc3ccc(F)cc3)c2)cc1`, for which, in [1], the Kd is > 1000 nM.

As to `CCC(CC)CN1CCCN(C(=O)Nc2cc(Oc3ccc(F)cc3)cc(Oc3ccc(C(=O)NC)cc3)c2)CC1`, the Kd in data set [1] was > 1000 nM.

In the case of `CCC(CC)CC1(O)CCN(C(=O)Nc2cc(Oc3ccc(F)cc3)cc(Oc3ccc(C(=O)N(C)C)cc3)c2)CC1`, in data set [1], the equilibrium dissociation constant (Kd) was determined as 6.62 nM.

Take `CCC(CC)CN1CC2CN(C(=O)Nc3cc(Oc4ccc(F)cc4)cc(Oc4ccc(C(=O)NC)cc4)c3)CC2C1` (centres undefined): the Kd in data set [1] was > 1000 nM.

`O=C(Nc1cc(Oc2ccc(F)cc2)cc(Oc2ccc(F)cc2)c1)Nc1cc(Cl)nc(Cl)c1`: the Kd in data set [1] was 7.48 nM.

`CNC(=O)c1ccc(Oc2cc(NC(=O)N3CCN(C(=O)c4ccc(F)cc4)CC3)cc(Oc3ccc(F)cc3)c2)cc1`: the Kd in data set [1] was 94.3 nM.

Take `O=C(Nc1cc(Oc2ccncc2)cc(Oc2ccc(F)cc2)c1)Nc1cc(Cl)nc(Cl)c1`: in data set [1], the dissociation constant Kd worked out at 8.76 nM.

Take `CNC(=O)c1ccc(Oc2cc(NC(=O)N3CCN(c4ccc(OC)cc4)CC3)cc(Oc3ccc(F)cc3)c2)cc1`: the equilibrium dissociation constant (Kd) in [1] was found to be 21.5 nM.

For the molecule `CCNC(=O)c1ccc(Oc2cc(NC(=O)N3CCN(CC(CC)CC)CC3)cc(Oc3ccc(F)cc3)c2)cc1`, the dissociation constant (Kd) in data set [1] turned out to be 7.23 nM.

Take `CNC(=O)c1ccc(Oc2cc(NC(=O)N3CCN(c4ccc(Cl)cc4)CC3)cc(Oc3ccc(F)cc3)c2)cc1`: in data set [1], the Kd was > 1000 nM.

As for `CCC(CC)CN1CCN(C(=O)Nc2cc(Oc3ccc(F)cc3)cc(Oc3ccc(C(=O)N(C)C)cc3)c2)CC1`, the Kd in data set [1] is 55.6 nM.

Regarding `CCC(CC)CN1CCN(C(=O)Nc2cc(Oc3ccc(F)cc3)cc(Oc3ccc(C(=O)N4CCCCCC4)cc3)c2)CC1`, the Kd in data set [1] was > 1000 nM.

Regarding `CCC(CC)CN1CCN(C(=O)Nc2cc(Oc3ccc(F)cc3)cc(Oc3ccc(C(=O)NC4CCCCC4)cc3)c2)CC1`, the Kd in data set [1] came to 12.7 nM.

For the molecule `CNC(=O)c1ccc(Oc2cc(NC(=O)N3CCC(O)(c4ccc(Cl)cc4)CC3)cc(Oc3ccc(F)cc3)c2)cc1`, in [1], the Kd was determined as 5.16 nM.

Regarding `CNC(=O)c1ccc(Oc2cc(NC(=O)N3CCN(c4cccc(OC)c4)CC3)cc(Oc3ccc(F)cc3)c2)cc1`, the Kd in data set [1] was > 1000 nM.

With `CCC(CC)CN1CCN(C(=O)Nc2cc(Oc3ccc(F)cc3)cc(Oc3ccc(C(=O)OC)cc3)c2)CC1`, the Kd in data set [1] was > 1000 nM.
